Assay results taken from publication PMC10611619, “[^99mTc]Tc-PentixaTec: development, extensive pre-clinical evaluation, and first human experience” (European Journal of Nuclear Medicine and Molecular Imaging, 2023).
Where a SMILES comes first, the peptide text is derived from it. Side-chain parts run from the residue outwards. [ ]: non-standard residue; d: D form. The star is where a group is joined. 2Nal = N[C@@H](Cc1ccc2ccccc2c1)C(=O)O; dNMeOrn = CN[C@H](CCCN)C(=O)O; 4Abz = Nc1ccc(C(=O)O)cc1; X1 = NCCNCC(CNCCN)C(=O)*; dDap = NC[C@@H](N)C(=O)O

What was measured:
[1] = test system: hCXCR4 expressing Chem-1 cells; assay: Dual tracer internalization studies with [^125I]FC-131 as internal reference; type: cell-based, human
Method: Dual tracer internalization studies using [^125I]FC-131 as internal reference were conducted in hCXCR4 expressing Chem-1 cells in analogy to a previously established protocol. A detailed assay protocol is provided in the supplementary material section.
On the day prior to the experiment, Chem-1 cells were seeded in 24-well-plates at a density of app. 1·10^5 cells per well. On the day of the experiment, the culture medium was removed and the cells were washed once with 250 µL of unsupplemented medium before being left to equilibrate in 200 µL of assay medium (DMEM/F-12 containing 5% BSA) at 37°C for a minimum of 15 min before the experiment. Cells were then coincubated with the respective ^99mTc-labeled compound of interest (0.2 nM) and [^125I]FC-131 (0.2 nM) in the absence (total binding) or presence (non-specific binding) of 100 µM AMD3100 for different time points up to 120 min at 37°C (n=3 wells, respectively, per time point). Incubation was terminated by placing the plate on an ice pack for app. 1 min and by subsequent removal of the incubation medium. Cells were thoroughly rinsed with 250 µL of HBSS. After washing twice with 250 µL of ice cold acid wash buffer (0.02 M NaOAc buffered with AcOH to pH = 5), cells were lysed with 250 µL of 1 N NaOH. The lysate was tranferred to vials and combined with 250 µL of HBSS used for rinsing the wells. Quantification of the amount of free, acid-releasable and internalized ^99mTc- and ^125I-activity was performed using dual isotope protocol on a WIZARD^2® 2480 automatic γ-Counter (Perkin Elmer, Waltham MA, USA).
All data were corrected for non-specific internalization in the presence of […] AMD3100 and were then normalized to the specific internalization observed of the standard radioligand [^125I]FC-131.

[2] = In vitro stability in various media (radio-TLC); type: in vitro ADME; details: for percentage of intact tracer: original product formulation
Method: Solutions were incubated for up to 13 h at room temperature. Sequential radio-thin layer chromatography was performed after 20 min, 40 min, 100 min, 2.6 h, 3.6 h, 4.4 h, and 13 h of incubation, and the amount of intact ligand was analyzed by integration of the TLC chromatogram.

[3] = Safety monitoring in patients (adverse events); type: in vivo, human
Method: Five patients (age, 48–72 y, median 66 y) with a history of hematological malignancy underwent imaging after intravenous injection of a median of 558 MBq (range, 417–601) [^99mTc]Tc-PentixaTec. […] Safety was assessed by monitoring adverse events after administration of [^99mTc]PentixaTec.

Structure (SMILES): C[C@@H](NC(=O)[C@@H](CCCNC(=N)N)NC(=O)[C@@H](CN)NC(=O)C(CNCCN)CNCCN)C(=O)Nc1ccc(C(=O)NCCC[C@@H]2C(=O)N[C@@H](CCCNC(=N)N)C(=O)N[C@@H](Cc3ccc4ccccc4c3)C(=O)NCC(=O)N[C@H](Cc3ccc(O)cc3)C(=O)N2C)cc1 [[^99mTc]Tc-N4-L6-CPCR4, [^99mTc]Tc-N4-dap-r-a-Abz-CPCR4, metal not drawn] (cyclo([dY][dNMeOrn]([4Abz-dA-dR-dDap-X1])R[2Nal]G))
- internalized activity in % of total cellular activity ([1]; 2 h): 97%
- absolute intracellular tracer accumulation ([1]; 2 h, 37°, 0.2 nM): ~40 % of added dose
- Internalization (% of reference) ([1]; 120 min, normalized to specific internalization of [^125I]FC-131, Chem-1 cells): 694 (120 min) % of reference
- internalization area under the curve (AUC) ([1]; internalization kinetics, Fig. 1): 3799
- stability in saline and challenging conditions ([2]; diluted with saline, citrate and DTPA, room temperature): progressive decomposition
- percentage of intact tracer ([2]; start): 94.5%
- percentage of intact tracer ([2]; within 2.5 h): 90.6%
- stability in physiological media ([2]; whole blood, serum, human serum albumin (2.5 and 5%), 13 h, room temperature): fully stable
- adverse events ([3]; five patients): no adverse events were recorded
- tolerability ([3]; five patients with hematologic malignancies): well tolerated
